Experimental data from PMC3656107, “Polymorphisms in the F8 Gene and MHC-II Variants as Risk Factors for the Development of Inhibitory Anti-Factor VIII Antibodies during the Treatment of Hemophilia A: A Computational Assessment” (PLoS Computational Biology, 2013).

Assays:
MHC-II DRB1*04:01 [1] = biological target: T1, MHC-II DRB1*04:01 (Homo sapiens, UniProt P01903+P01911, A100K/A169T/F76Y/I96L/K127E/L162R/M171V/N62H/P40V/Q125Y/R42H/S133A/S149N/S66Y/V115G/V209L/W38E); experiment: Cell-free REVEAL class II binding assay; details: signal of test peptide as percentage of allele-specific positive control peptide, fluorescence, conformation-specific monoclonal antibody
Summary of the method: (§1)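 Test peptides incubated with MHC-II protein; correctly folded complexes then detected with a specific monoclonal antibody giving a fluorescence signal. Each peptide scored quantitatively against that allele's positive control epitope, expressed as a percentage.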

MHC-II DRB1*03:01 [2] = biological target: T2, MHC-II DRB1*03:01 (Homo sapiens, UniProt P01903+P01911, A100K/A102G/A103R/A169T/F55Y/I96L/K41T/L162R/M171V/P40S/Q125H/Q178H/Q39Y/R42S/S66N/T106N/T262R/W38E/Y61H); experiment: Cell-free REVEAL class II binding assay; details: signal of test peptide as percentage of allele-specific positive control peptide, fluorescence, conformation-specific monoclonal antibody
Summary of the method: as §1

MHC-II DRB1*07:01 [3] = biological target: T3, MHC-II DRB1*07:01 (Homo sapiens, UniProt P01903+P01911, A100R/A102G/A103Q/D57E/D86V/E43K/F76Y/K127E/L162R/M171V/P40G/Q125H/Q99D/R33Q/R42Y/R54Q/S133A/S66F/T210M/V115G/Y107V/Y59L/Y89S); experiment: Cell-free REVEAL class II binding assay; details: signal of test peptide as percentage of allele-specific positive control peptide, fluorescence, conformation-specific monoclonal antibody
Summary of the method: as §1

MHC-II DRB1*15:03 [4] = biological target: T4, MHC-II DRB1*15:03 (Homo sapiens, UniProt P01903+P01911, Y59H); experiment: Cell-free REVEAL class II binding assay; details: signal of test peptide as percentage of allele-specific positive control peptide, fluorescence, conformation-specific monoclonal antibody
T4 construct: purchased ProImmune
Summary of the method: as §1

MHC-II DRB1*15:01 [5] = biological target: T5, MHC-II DRB1*15:01 (Homo sapiens, UniProt P01903+P01911); experiment: Cell-free REVEAL class II binding assay; details: signal of test peptide as percentage of allele-specific positive control peptide, fluorescence, conformation-specific monoclonal antibody
T5 construct: purchased ProImmune
Summary of the method: as §1

MHC-II DRB1*11:01 [6] = biological target: T6, MHC-II DRB1*11:01 (Homo sapiens, UniProt P01903+P01911, A100R/A169T/A87E/I96F/K41T/L162R/M171V/P40S/Q125H/Q178H/Q39Y/Q99D/R42S/S66Y/T262R/V115G/W38E); experiment: Cell-free REVEAL class II binding assay; details: signal of test peptide as percentage of allele-specific positive control peptide, fluorescence, conformation-specific monoclonal antibody
Summary of the method: as §1

MHC-II DRB1*04:01 [7] = biological target: T1, MHC-II DRB1*04:01; experiment: Cell-free REVEAL class II stability assay; details: half-life of peptide-MHC-II complex (h, capped at 120) x Binding Score / 100, conformational ELISA
Summary of the method: (§2)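 Readout is a conformational ELISA with anti-HLA antibody, scoring assembly or percent denaturation of peptide–MHC-II complexes sampled at timed points. Association ran 96 hr at 10°C. The reported stability score is half-life multiplied by Binding Score, divided by 100.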

MHC-II DRB1*03:01 [8] = biological target: T2, MHC-II DRB1*03:01; experiment: Cell-free REVEAL class II stability assay; details: half-life of peptide-MHC-II complex (h, capped at 120) x Binding Score / 100, conformational ELISA
Summary of the method: as §2

MHC-II DRB1*07:01 [9] = biological target: T3, MHC-II DRB1*07:01; experiment: Cell-free REVEAL class II stability assay; details: half-life of peptide-MHC-II complex (h, capped at 120) x Binding Score / 100, conformational ELISA
Summary of the method: as §2

MHC-II DRB1*15:03 [10] = biological target: T4, MHC-II DRB1*15:03; experiment: Cell-free REVEAL class II stability assay; details: half-life of peptide-MHC-II complex (h, capped at 120) x Binding Score / 100, conformational ELISA
Summary of the method: as §2

MHC-II DRB1*15:01 [11] = biological target: T5, MHC-II DRB1*15:01; experiment: Cell-free REVEAL class II stability assay; details: half-life of peptide-MHC-II complex (h, capped at 120) x Binding Score / 100, conformational ELISA
Summary of the method: as §2

MHC-II DRB1*11:01 [12] = biological target: T6, MHC-II DRB1*11:01; experiment: Cell-free REVEAL class II stability assay; details: half-life of peptide-MHC-II complex (h, capped at 120) x Binding Score / 100, conformational ELISA
Summary of the method: as §2

T4 sequence (P01903 26-254, other chains not shown): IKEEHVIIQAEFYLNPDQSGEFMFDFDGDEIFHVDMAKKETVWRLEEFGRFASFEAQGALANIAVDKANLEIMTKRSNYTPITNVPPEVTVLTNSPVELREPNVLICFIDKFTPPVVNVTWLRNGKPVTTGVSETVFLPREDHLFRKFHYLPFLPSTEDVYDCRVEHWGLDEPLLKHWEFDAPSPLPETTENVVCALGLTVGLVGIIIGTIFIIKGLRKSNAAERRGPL
T6 sequence (P01903 26-254 limits assumed, other chains not shown): as the sequence (P01903 26-254, other chains not shown) above
T2 sequence (P01903 26-254 limits assumed, other chains not shown): as the sequence (P01903 26-254, other chains not shown) above

Row | Sequence | Binding Score (MHC-II DRB1*04:01 [1]) | Binding Score (MHC-II DRB1*03:01 [2]) | Binding Score (MHC-II DRB1*07:01 [3]) | Binding Score (MHC-II DRB1*15:03 [4]) | Binding Score (MHC-II DRB1*15:01 [5]) | Binding Score (MHC-II DRB1*11:01 [6]) | Stability Index (MHC-II DRB1*04:01 [7]) | Stability Index (MHC-II DRB1*03:01 [8]) | Stability Index (MHC-II DRB1*07:01 [9]) | Stability Index (MHC-II DRB1*15:03 [10]) | Stability Index (MHC-II DRB1*15:01 [11]) | Stability Index (MHC-II DRB1*11:01 [12])
1 | ASEGAEYDDQTSQRE [synthetic wild type FVIII 15 mer peptide] | 0.0% | 0.0% | 0.0% | 0.0% | 0.0% | 0.0% | 0.0 | 0.0 | 0.0 | 0.0 | 0.0 | 0.0
2 | MKVTGVTTQGVKSLL [synthetic wild type FVIII 15 mer peptide, region of ns-SNP M2238V] | 7.8% | 0.0% | 0.0% | 0.0% | 1.4% | 0.1% | 0.8 | 0.0 | 0.0 | 0.0 | 0.8 | 0.0
3 | TRYLRIHPQSWVHQI [synthetic wild type FVIII 15 mer peptide] | 8.2% | 0.0% | 34.0% | 25.4% | 819.2% | 49.4% | 0.9 | 0.0 | 40.8 | 30.5 | 983.1 | 5.3
4 | TVEDGPTKSDPRCLT [synthetic wild type FVIII 15 mer peptide] | 0.2% | 0.2% | 0.0% | 0.0% | 0.0% | 0.0% | 0.0 | 0.0 | 0.0 | 0.0 | 0.0 | 0.0
5 | SQFIIMYSLDGKKWQ [synthetic wild type FVIII 15 mer peptide] | 38.1% | 4.8% | 0.0% | 14.6% | 1455.4% | 100.8% | 11.8 | 0.5 | 0.0 | 16.4 | 1746.5 | 27.9
6 | GITDVRPLYSRRLPK [synthetic wild type FVIII 15 mer peptide, region of ns-SNP R484H] | 0.8% | 10.8% | 2.0% | 2.6% | 29.1% | 13.2% | 0.1 | 3.7 | 0.6 | 3.1 | 34.9 | 0.6
7 | PRCLTRYYSSFVNME [synthetic wild type FVIII 15 mer peptide] | 9.6% | 0.9% | 0.0% | 72.3% | 336.9% | 20.5% | 0.7 | 0.1 | 0.0 | 86.8 | 404.2 | 1.2
8 | AHRTPMPKIQNVSSS [synthetic wild type FVIII 15 mer peptide, region of ns-SNP R776G] | 1.3% | 0.0% | 0.0% | 0.4% | 0.0% | 0.2% | 0.1 | 0.0 | 0.0 | 0.1 | 0.1 | 0.0
9 | IFNPPIIARYIRLHP [synthetic wild type FVIII 15 mer peptide] | 1.7% | 0.7% | 0.0% | 3.8% | 1224.5% | 61.5% | 0.0 | 0.0 | 0.0 | 4.5 | 1469.4 | 6.3
10 | YPHGITDVRPLYSRR [synthetic wild type FVIII 15 mer peptide, region of ns-SNP R484H] | 0.1% | 4.8% | 0.1% | 0.1% | 0.4% | 46.7% | 0.0 | 5.2 | 0.1 | 0.1 | 0.5 | 1.2
11 | IIMYSLDGKKWQTYR [synthetic wild type FVIII 15 mer peptide] | 8.3% | 6.0% | 0.0% | 47.8% | 1853.0% | 23.3% | 0.7 | 1.7 | 0.1 | 57.3 | 2223.6 | 1.4
12 | GPTKSDPRCLTRYYS [synthetic wild type FVIII 15 mer peptide] | 0.5% | 4.8% | 0.0% | 3.8% | 63.6% | 1.2% | 0.1 | 1.6 | 0.0 | 0.0 | 7.2 | 0.0
13 | YISQFIIMYSLDGKK [synthetic wild type FVIII 15 mer peptide] | 44.5% | 1.8% | 0.0% | 1.4% | 602.6% | 114.1% | 30.9 | 0.2 | 0.0 | 1.7 | 723.1 | 33.1
14 | SLHAVGVSYWKASEG [synthetic wild type FVIII 15 mer peptide] | 1.3% | 1.3% | 0.2% | 0.7% | 18.1% | 0.3% | 0.1 | 0.1 | 0.0 | 0.0 | 1.4 | 0.0
15 | VVNSLDPPLLTRYLR [synthetic wild type FVIII 15 mer peptide] | 1.2% | 2.7% | 0.0% | 2.2% | 95.8% | 0.2% | 0.1 | 0.4 | 0.0 | 0.1 | 7.8 | 0.0
